Results: US20230286973A1, “PROTEIN SECRETION INHIBITORS” (KEZAR LIFE SCIENCES, priority 2020, published 2023)
Read-outs that look alike come from different tables or passages of the source.

Columns and labels:
[1] = tested on: PD1-ss+10aa/Gaussia Luciferase; assay: Dox-Induced PD1-ss-Gluc Assay; format: cell-based; settings: 24 hr Dox induction, 293FRT/TO cells, read-out: 24 hr Dox Inducible PD1ssGluc 293FRT/TO: Mean IC50
Outline: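 Doxycycline-induced expression of a PD1-ss+10aa/Gaussia luciferase reporter is measured in stable Flp-In 293 T-REx cells. Compound dilutions containing doxycycline are added one day after plating and incubated at 37 °C, 5% CO2. Values for unassigned stereocentres refer to stereoisomer mixtures.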

[2] = tested on: TNFα-FL/Gaussia Luciferase; assay: Dox Induced TNFα-FL-Gluc Assay; format: cell-based; settings: for IC50: 24 hr Dox induction, 293FRT/TO cells, read-out: 24 hr Dox Inducible TNFaFLGluc 293FRT/TO: Mean IC50; for 24 hr Dox Inducible TNFaFLGluc 293FRT/TO: TNF/PD1: ratio of TNFaFLGluc IC50 to PD1ssGluc IC50
Outline: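 Flp-In 293 T-REx cells stably carrying doxycycline-inducible full-length TNFα (aa 1-233) fused to Gaussia luciferase. Plated the day before, then treated with compound dilutions in doxycycline-containing medium at 37° C, 5% CO2.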

[3] = tested on: HER3-ss+4aa/Gaussia Luciferase; assay: Dox-Induced Her3-ss-Gluc Assay; format: cell-based; settings: 24 hr Dox induction, 293FRT/TO cells, read-out: 24 hr Dox Inducible Her3(ss + 4)Gluc 293FRT/TO: Mean IC50
Outline: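 Stable Flp-In 293 T-REx cells carried a doxycycline-inducible HER3 signal sequence (+4 aa) fused to Gaussia luciferase. Cells were plated the day before the assay. Compound dilutions in DMSO/media containing doxycycline were then added, and plates were incubated at 37 °C, 5% CO2.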

[4] = tested on: IL-2-FL/Gaussia Luciferase; assay: Dox Induced IL2-FL-Gluc Assay; format: cell-based; settings: for IC50: 24 hr Dox induction, 293FRT/TO cells, read-out: 24 hr Dox Inducible IL2FLGluc 293FRT/TO: Mean IC50; for 24 hr Dox Inducible IL2FLGluc 293FRT/TO: IL2/PD1: ratio of IL2FLGluc IC50 to PD1ssGluc IC50
Outline: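 Stable Flp-In 293 T-REx cells carrying doxycycline-inducible full-length IL-2 (aa 1-153) fused to Gaussia luciferase, plated the day before assay. Compound dilutions added in medium containing doxycycline, incubated at 37 °C, 5% CO2. Undefined stereocentres mean data refer to stereoisomer mixtures.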

[5] = tested on: multiple myeloma cell line NCI-H929; assay: H929 Cell Viability Assay; format: cell-based, human; settings: Homo sapiens, NCI-H929, 48 h, NCI-H929 cells, Celltiter-Glo
Outline: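 NCI-H929 cells in RPMI 1640 with 10% FBS were treated with compound dilutions for 48 h at 37° C, 5% CO2. Viability was read by CellTiter-Glo luminescence. Undefined stereocentres denote stereoisomer mixtures.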

[6] = tested on: multiple myeloma cell line U266B1; assay: U266 Cell Viability Assay; format: cell-based, human; settings: Homo sapiens, U-266, 48 h, U266B1 cells, Celltiter-Glo
Outline: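 U266B1 multiple myeloma cells in RPMI 1640/10% FBS were treated with compound dilutions for 48 h at 37 °C, 5% CO2. Viability was measured by CellTiter-Glo luminescence; compounds drawn without stereochemistry were tested as stereoisomer mixtures.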

[7] = Liver Microsome Stability Assay (rat); settings: rat liver microsomes, with NADPH, 1.0 uM compound
Protocol: (§1) Stability of a compound was assessed in the presence of liver microsomes from various sources—mouse, rat, monkey and human liver microsomes. 1.0 uM compound, 0.4% DMSO in 0.1 M Potassium Phosphate with 1.0 mg/mL liver microsomes, were incubated at 37° C. with or without 1 mM NADPH. The samples were quenched at 0, and 30 minutes.

[8] = Liver Microsome Stability Assay (mouse); settings: mouse liver microsomes, with NADPH, 1.0 uM compound
Protocol: as §1

[9] = Liver Microsome Stability Assay (human); settings: human liver microsomes, with NADPH, 1.0 uM compound
Protocol: as §1

[10] = Liver Microsome Stability Assay (monkey); settings: monkey liver microsomes, with NADPH, 1.0 uM compound
Protocol: as §1

[11] = '<=>' given where both are I.A.

| IC50 ([1]; mean) [nM] | IC50 ([2]; mean) [nM] | IC50 ([3]; mean) [nM] | IC50 ([4]; mean) [nM] | EC50 [5] [nM] | EC50 [6] [nM] | Liver Microsome Stability (Multiple Species): Rat - % Remaining after 30 min w/NADPH [7] [%] | Liver Microsome Stability (Multiple Species): Mouse - % Remaining after 30 min w/NADPH [8] [%] | Liver Microsome Stability (Multiple Species): Human - % Remaining after 30 min w/NADPH [9] [%] | Liver Microsome Stability (Multiple Species): Monkey - % Remaining after 30 min w/NADPH [10] [%] | IC50 [1] [nM] | IC50 [2] [nM] | IC50 [3] [nM] | IC50 [4] [nM] | SMILES | 24 hr Dox Inducible TNFaFLGluc 293FRT/TO: TNF/PD1 [2, 11] | 24 hr Dox Inducible IL2FLGluc 293FRT/TO: IL2/PD1 [4, 11] | 24 hr Dox Inducible TNFaFLGluc 293FRT/TO: TNF/PD1 [2] | 24 hr Dox Inducible IL2FLGluc 293FRT/TO: IL2/PD1 [4] |
| --- | --- | --- | --- | --- | --- | --- | --- | --- | --- | --- | --- | --- | --- | --- | --- | --- | --- | --- |
| 14.7 | 266 | 38.7 | 71.9 | 1900 | > 25000 | 60.2 | 62.6 | 63.8 | 23.6 |  |  |  |  | Cc1ccc(N2CCC[C@@H]2c2csc(NC(=O)c3cccn3CC3CCOCC3)n2)cc1 [Compound C53, (R)-1-((tetrahydro-2H-pyran-4-yl)methyl)-N-(4-(1-(p-tolyl)pyrrolidin-2-yl)thiazol-2-yl)-1H-pyrrole-2-carboxamide] | 18.2 | 4.9 |  |  |
| 377 | 8550 | 620 | 776 | > 25000 | > 25000 | 6.16 | 23.6 | 58.5 | 3.11 |  |  |  |  | O=C(Nc1nc([C@H]2CCCN2c2ccccc2)cs1)c1cccn1CC1CCC(F)(F)C1 (stereo partly drawn) [Compound C123, 1-((3,3-difluorocyclopentyl)methyl)-N-(4-((R)-1-phenylpyrrolidin-2-yl)thiazol-2-yl)-1H-pyrrole-2-carboxamide] | 22.7 | 2.1 |  |  |
|  |  |  |  | 530 | > 25000 | 20.1 | 9 | 2.33 | 0.62 | 15.6 | 171 | 33.5 | 26 | O=C(Nc1nc([C@H]2CCCN2c2ccc(O[C@@H]3CCOC3)cc2)cs1)c1cccn1Cc1ccncc1 [Compound A3, 1-(pyridin-4-ylmethyl)-N-(4-((R)-1-(4-(((R)-tetrahydrofuran-3-yl)oxy)phenyl)pyrrolidin-2-yl)thiazol-2-yl)-1H-pyrrole-2-carboxamide] |  |  | 11 | 1.7 |
|  |  |  |  | > 25000 | > 25000 | 18.8 | 35.4 | 0.55 | 0.33 | 476 | > 25000 | > 25000 | > 25000 | CC(C#N)n1cnc(/C=C/c2csc(NC(=O)c3cccn3Cc3ccnc(F)c3)n2)c1 (stereo not drawn) [Compound B107, (E)-N-(4-(2-(1-(1-cyanoethyl)-1H-imidazol-4-yl)vinyl)thiazol-2-yl)-1-((2-fluoropyridin-4-yl)methyl)-1H-pyrrole-2-carboxamide] |  |  | >52.5 | >52 |
|  |  |  |  | 3320 | > 25000 | 24.2 | 14.5 | 8.23 | 1.84 | 90.5 | 1060 | 128 | 130 | O=C(Nc1nc([C@H]2CCCN2c2ccc(OC3CS(=O)(=O)C3)cc2)cs1)c1cccn1Cc1ccnc(F)c1 [Compound A158] |  |  | 11.7 | 1.4 |
|  |  |  |  | 4000 | > 25000 | 16.6 | 0.55 | 0.64 | 0.16 | 82.1 | 1530 | 249 | 232 | CC(=O)N1CCC[C@@H](Oc2ccc(N3CCC[C@@H]3c3csc(NC(=O)c4cccn4Cc4ccnc(F)c4)n3)cc2)C1 [Compound A83] |  |  | 18.6 | 2.8 |
| 25.6 | 275 | 49.6 | 54.3 | 1130 | > 25000 | 16.5 | 7.53 | 9.81 | 4.1 |  |  |  |  | CC(=O)Nc1ccc(N2CCC[C@@H]2c2csc(NC(=O)c3cccn3C[C@@H](C)CC#N)n2)cc1 [Compound C117, N-(4-((R)-1-(4-acetamidophenyl)pyrrolidin-2-yl)thiazol-2-yl)-1-((S)-3-cyano-2-methylpropyl)-1H-pyrrole-2-carboxamide] | 10.7 | 2.1 |  |  |
|  |  |  |  | 22400 | > 25000 | 4.99 | 11 | 2.44 | 1.43 | 292 | 6660 | 830 | 1510 | CN(C)c1cccc(-c2csc(NC(=O)c3cccn3Cc3ccncc3)n2)c1 [Compound A76, N-(4-(3-(dimethylamino)phenyl)thiazol-2-yl)-1-(pyridin-4-ylmethyl)-1H-pyrrole-2-carboxamide] |  |  | 22.9 | 5.2 |
| 7640 | > 25000 | 15900 | 6460 | > 25000 | > 25000 | 13.6 | 19.8 | 19.1 | 18.5 |  |  |  |  | N#CC[C@H](O)Cn1cccc1C(=O)Nc1nc([C@H]2CCCN2c2ccccc2)cs1 [Compound C100, 1-((S)-3-cyano-2-hydroxypropyl)-N-(4-((R)-1-phenylpyrrolidin-2-yl)thiazol-2-yl)-1H-pyrrole-2-carboxamide] | >3.27 | 0.85 |  |  |
